# Values of other authors in patent US20060251722A1, “Multi-component vitamin and mineral supplement for the optimal absorption of components” (Novavax, Inc., priority 2005, published 2006).
# Conditions: rat, in vivo, po
substance,measurement,value
carbonyl iron,bioavailability relative to other elemental iron forms,2-5 times
